Experimental data reported in US20220105058A1, “USE OF 3-O-SULFAMATE-16,16-DIMETHYL-D-HOMOEQUILENIN TO TREAT ONCOLOGICAL DISEASES” (priority 2018, published 2022).
Several values for one entry are separate records, joined by “and”; a condition that tells them apart may be missing. Equal values may be shown once. Entries after “also recorded” stand apart in the source; their conditions may differ. Read-outs that look alike come from different tables or passages of the source.

Assays:
[1] = body weight and tolerability during the antitumor study; conditions: for average body weight of mice (M): Tamoxifen 4.0 mg/kg i.g. daily; for Body weight: Tamoxifen 4 mg/kg
Method: The study medicament was administered i.g. using a metal atraumatic gavage (with the procedure corresponds to the oral route of administration in clinical settings). The medicament was administered in a single daily dose (20 mg/kg of body weight) and 5-fold daily dose of 100 mg/kg of body weight. Ex tempore solutions of the medicament for administration were prepared in olive oil (refined olive oil supplemented with unrefined extra virgin olive oil available under Global Village “Clasico” trademark, lot L:183351116, expiry date 26 Apr. 2020, BAIEO, Spain). The administered volume was 0.1 ml per 10 g of a mouse body weight (0.2 ml of a ready-to-use formulation for a mouse of 20 g). The medicament administration was started 24 hours after the randomization. The duration of the administration course was 27-28 days.
This dose corresponds to a human daily dose of 20 mg/kg.
The evaluation criteria included the clinical observation data, animals body weights, time of death (if applicable), tumor growth over time, pathomorphological examination data (verification of a neoplasm during autopsy, assessment of toxic effects by macroscopic presentation of changes in the internal organs).
The animals body weights were recorded before the first administration of the medicaments and then twice per week using a verified high-speed electronic laboratory balance Ohaus Scout Pro (USA) with a maximum load of 2000 g and a measurement step of 0.1 g.

[2] = test system: subcutaneous xenografts of human TNBC-Kad breast cancer
Method: (§1) A comparative study of the medicaments in vivo was performed in female Balb/c nude mice with subcutaneously (s.c.) transplanted tumor cells. The experiment lasted for 29 days after the medicament administration for the first time (the administration of the medicaments was started on Day 5 after the tumor strain transplantation).
(§2) The medicament and the reference drug were administered intragastrically multiple times at doses of 30 mg/kg and 10 mg/kg daily for 21 days.
(§3) The placebo group was given 1% starch solution intragastrically in equivalent volumes and in the same regime. Tumor nodes were measured 2 times per week. […] Once the treatment was completed, the last tumor measurement was carried out, and animals were weighed and euthanized.
(§4) The animals were weighed on the first day of the experiment, and then 2 times per week throughout the experiment according to the research protocol.
(§5) A tumor node was measured after tumor transplantation 2 times per week throughout the experiment. The tumor node volume was determined by the formula:
(§6) V=π/6*L*W*H, where L, W, H are the linear size dimensions of the tumor.
(§7) Determination of Antitumor Activity
(§8) Tumor growth inhibition index (TGI) was used as a criterion for the study of the medicament efficacy and calculated by the formula as follows:
(§9) TGI (%)=|Vctrl−Vexp|/Vctrl*100
(§10) where Vctrl and Vexp are the average tumor volume (mm^3) in the control and in the experimental groups, respectively.
(§11) After the course of the treatment, the animals were euthanized by the cervical dislocation of cervical vertebrae.
(§12) The statistical data processing was conducted using SPSS 21 package (license No. 20130626-3). Descriptive statistics in the study includes the following: arithmetic average, standard deviation (SD), standard mean error (SE), median, quartiles, interquartile range. To compare quantitative characteristics in the groups, the Mann-Whitney-Wilcoxon test was used without corrections for multiple comparisons. The results were considered statistically significant at p<0.05.

[3] = test system: subcutaneous xenografts of human SKBR-3 breast cancer
Method: as §1, §2, §3, §4, §5, §6, §7, §8, §9, §10, §11, §12

[4] = test system: MCF-7 human cells culture (breast adenocarcinoma); test: proliferation of passaged MCF-7 cell culture; assay type: cell-based
Method: The study analysis was carried out on an passaged MCF-7 human cells culture culture (breast adenocarcinoma). Normal human dermal fibroblasts (HDF) of early passages were used as a negative control. The cells were cultivated in Carrel vials in DMEM/F12 medium (Biolot) with 1.0% of antibiotic-free fetal bovine embryonic serum (Biolot) added in the 5% CO2 atmosphere, at 37° C.
The cells were seeded on Carrel vials at 50×10^4 cells per flask. To study the proliferative activity of the cells under conditions of sulfatase inhibition, 24 hours after seeding the culture medium […], and then these tumor cell lines were incubated for various periods of time (24 to 72 hrs). The inhibitor was dissolved in DMSO. […] To exclude the cytotoxic effect of DMSO, a control sample comprising DMSO without sulfatase inhibitor was prepared. To exclude nonspecific detrimental effects of the compounds, normal human skin fibroblasts were used. Then the cells were detached with the versene-trypsin solution (Biolot), plated onto Carrel vials containing a fresh complete culture medium. The cells were counted when untreated control cells reached the maximum cell density per unit of surface area of a culture flask (monolayer), and their number was set as 100%. The proliferative activity of all of the studied cell cultures exposed to sulfatase inhibitors was determined in triplicate.

CC/C(=C(\c1ccccc1)c1ccc(OCCN(C)C)cc1)c1ccccc1 [Tamoxifen]
average body weight of mice (M) ([1]; Day 0): 31.0 g | average body weight of mice (M) ([1]; Day 7): 32.0 g | average body weight of mice (M) ([1]; Day 14): 32.9 g | average body weight of mice (M) ([1]; Day 21): 32.8 g | average body weight of mice (M) ([1]; Day 28): 34.2 g | Body weight ([1]; Day 28, All mice): 34.2 ± 1.4 g | Body weight ([1]; Day 28, estrus (E-9)): 34.2 ± 1.4 g | tumor growth inhibition over the entire observation period ([2]; Tamoxifen 10 mg/kg): no tumor growth inhibition was detected; also recorded: is not effective | average tumor volume (M ± m) ([2]; Tamoxifen 10 mg/kg, Day 0): 2.3±0.8 mm^3 and 2.33 ± 0.76 mm^3 | average tumor volume (M ± m) ([2]; Tamoxifen 10 mg/kg, Day 3): 25.61 ± 5.56 mm^3 | TNBC_Kad growth inhibition, TGI ([2]; Tamoxifen 10 mg/kg, Day 7): 0.5% | average tumor volume (M ± m) ([2]; Tamoxifen 10 mg/kg, Day 7): 79.17 ± 18.80 mm^3 | TNBC_Kad growth inhibition, TGI ([2]; Tamoxifen 10 mg/kg, Day 10): −20.7% | average tumor volume (M ± m) ([2]; Tamoxifen 10 mg/kg, Day 10): 122.09 ± 27.84 mm^3 | TNBC_Kad growth inhibition, TGI ([2]; Tamoxifen 10 mg/kg, Day 14): −18.4% | average tumor volume (M ± m) ([2]; Tamoxifen 10 mg/kg, Day 14): 193.24 ± 54.10 mm^3 | TNBC_Kad growth inhibition, TGI ([2]; Tamoxifen 10 mg/kg, Day 17): −22.6% | average tumor volume (M ± m) ([2]; Tamoxifen 10 mg/kg, Day 17): 237.32 ± 77.07 mm^3 | TNBC_Kad growth inhibition, TGI ([2]; Tamoxifen 10 mg/kg, Day 21): −7.9% | average tumor volume (M ± m) ([2]; Tamoxifen 10 mg/kg, Day 21): 322.76 ± 88.25 mm^3 | average tumor volume (M ± m) ([2]; Tamoxifen 30 mg/kg, Day 0): 4.1±1.2 mm^3 and 4.14 ± 1.22 mm^3 | average tumor volume (M ± m) ([2]; Tamoxifen 30 mg/kg, Day 3): 17.12 ± 4.12 mm^3 | average tumor volume (M ± m) ([2]; Tamoxifen 30 mg/kg, Day 7): 44.1±8.8 mm^3 and 44.13 ± 8.81 mm^3 | TNBC_Kad growth inhibition, TGI ([2]; Tamoxifen 30 mg/kg, Day 10): 39.4% | average tumor volume (M ± m) ([2]; Tamoxifen 30 mg/kg, Day 10): 61.37 ± 12.03 mm^3 | TNBC_Kad growth inhibition, TGI ([2]; Tamoxifen 30 mg/kg, Day 14): 26.8% | average tumor volume (M ± m) ([2]; Tamoxifen 30 mg/kg, Day 14): 119.53 ± 18.54 mm^3 | TNBC_Kad growth inhibition, TGI ([2]; Tamoxifen 30 mg/kg, Day 17): 26.7% | average tumor volume (M ± m) ([2]; Tamoxifen 30 mg/kg, Day 17): 141.85 ± 35.07 mm^3 | TNBC_Kad growth inhibition, TGI ([2]; Tamoxifen 30 mg/kg, Day 21): 33.3% | average tumor volume (M ± m) ([2]; Tamoxifen 30 mg/kg, Day 21): 199.54 ± 43.55 mm^3 | average tumor volume (M ± m) ([3]; Tamoxifen 10 mg/kg, Day 0): 0.7±0.1 mm^3 | average tumor volume (M ± m) ([3]; Tamoxifen 10 mg/kg, Day 3): 1.0 ± 0.3 mm^3 | SKBR-3 growth inhibition, TGI ([3]; Tamoxifen 10 mg/kg, Day 7): 63.9% | average tumor volume (M ± m) ([3]; Tamoxifen 10 mg/kg, Day 7): 7.2±3.9 mm^3 | SKBR-3 growth inhibition, TGI ([3]; Tamoxifen 10 mg/kg, Day 10): 56.9% | average tumor volume (M ± m) ([3]; Tamoxifen 10 mg/kg, Day 10): 33.4±16.1 mm^3 | SKBR-3 growth inhibition, TGI ([3]; Tamoxifen 10 mg/kg, Day 14): 60.6% | average tumor volume (M ± m) ([3]; Tamoxifen 10 mg/kg, Day 14): 47.5±16.8 mm^3 | SKBR-3 growth inhibition, TGI ([3]; Tamoxifen 10 mg/kg, Day 17): 68.9% | average tumor volume (M ± m) ([3]; Tamoxifen 10 mg/kg, Day 17): 58.0±18.2 mm^3 | SKBR-3 growth inhibition, TGI ([3]; Tamoxifen 10 mg/kg, Day 21): 45.4% | average tumor volume (M ± m) ([3]; Tamoxifen 10 mg/kg, Day 21): 145.5 ± 70.9 mm^3 | SKBR-3 growth inhibition, TGI ([3]; Tamoxifen 10 mg/kg, Day 24): 9.5% | average tumor volume (M ± m) ([3]; Tamoxifen 10 mg/kg, Day 24): 211.1 ± 94.0 mm^3 | average tumor volume (M ± m) ([3]; Tamoxifen 30 mg/kg, Day 0): 0.9±0.2 mm^3 | average tumor volume (M ± m) ([3]; Tamoxifen 30 mg/kg, Day 3): 2.0 ± 0.4 mm^3 | SKBR-3 growth inhibition, TGI ([3]; Tamoxifen 30 mg/kg, Day 7): 6.2% | average tumor volume (M ± m) ([3]; Tamoxifen 30 mg/kg, Day 7): 18.8±7.4 mm^3 | SKBR-3 growth inhibition, TGI ([3]; Tamoxifen 30 mg/kg, Day 10): 12.6% | average tumor volume (M ± m) ([3]; Tamoxifen 30 mg/kg, Day 10): 67.6 ± 21.1 mm^3 | SKBR-3 growth inhibition, TGI ([3]; Tamoxifen 30 mg/kg, Day 14): 2.9% | average tumor volume (M ± m) ([3]; Tamoxifen 30 mg/kg, Day 14): 117.1 ± 41.7 mm^3 | SKBR-3 growth inhibition, TGI ([3]; Tamoxifen 30 mg/kg, Day 17): −17.1% | average tumor volume (M ± m) ([3]; Tamoxifen 30 mg/kg, Day 17): 218.3 ± 63.6 mm^3 | SKBR-3 growth inhibition, TGI ([3]; Tamoxifen 30 mg/kg, Day 21): −44.2% and −44.4% | average tumor volume (M ± m) ([3]; Tamoxifen 30 mg/kg, Day 21): 384.8±103.2 mm^3 | SKBR-3 growth inhibition, TGI ([3]; Tamoxifen 30 mg/kg, Day 24): −68.1% | average tumor volume (M ± m) ([3]; Tamoxifen 30 mg/kg, Day 24): 392.1 mm^3 | antitumor efficacy ([3]; pilot experiment, Tamoxifen 10 mg/kg): not effective | effect on tumor growth ([3]; pilot experiment, Tamoxifen 10 mg/kg, Days 10 to 17): tumor growth stimulation was recorded | proliferation of tumor MCF-7 cells [4]: inhibited to the same extent
